US9278086B2, “Combination therapy and uses thereof for treatment and prevention of parasitic infection and disease” (The Royal Institution for the Advancement of …, priority 2010, dated 2016)

Experiment: in vivo
Parameters: species or system mice
Details: mouse
Protocol: Cysteamine was detected in plasma by high performance liquid chromatography analysis with ultraviolet detection (Dias V C, et al. (1998) Clin Chem 44: 2199-2201). Briefly, blood was collected in EDTA/heparin-containing tubes, and plasma was obtained by centrifugation. Plasma thiols were reduced by treatment with Tris(2-carboxyethyl)phosphine (0.05M final concentration, 20 min. at 20° C.), and proteins were precipitated with tri-chloroacetic acid (TCA, 10% final concentration). Free thiols from the protein-free supernatant were derivatized using SBD-F ([…]), used at a final concentration of 0.2 mg/ml (1 hr at 60° C.) in 0.05 M borate buffer (pH 9.5). The mixture was then analyzed by HPLC: the mobile phase consisted of an aqueous solvent (0.1M acetic acid, 0.1 sodium acetate, pH 4.3) running on a Supelco™ LC-8 column, and elution of plasma analytes was with a 0-10% acetonitrile gradient. Detection of SBD-F derivatized analytes was by reading fluorescence at 515 nm (excitation at 385 nm). Cysteamine elution peaks were quantified (surface area), and plasma concentrations were calculated using a set of internal cysteamine standards processed at the same time. Area under the curve (AUCt0-tlast) was calculated using the trapezoid approximation method.
To gain more insight into the anti-malarial effect of cysteamine (Cys) in vivo, the pharmacokinetic characteristics (plasma level) of Cys administered through the sub-cutaneous (s.c.) and intra-peritoneal (i.p) routes was compared. […] To determine which pharmacokinetic parameter (AUC vs. Cmax) is important for efficacy against Plasmodium, the i.p. and s.c. routes of injection were compared in a continuous treatment regimen, starting one day prior to infection (10^5 pRBC of P. chabaudi, i.v.) and continuing daily for 7 days. Parasitemia was monitored on thin blood smears at days 5, 6 and 7 following infection (FIG. 1B). Treatment of infected animals with 120 mg/kg of Cys administered either s.c. or i.p. caused a highly significant (p<0.01) 50% reduction in parasitemia at day 5 and 6, relative to saline injected controls.
It was next determined whether Cys at equivalent dosing to that used in the clinical treatment of nephropathic cystinosis in humans has an effect on the course and severity of P. chabaudi infection in mice. In cystinosis patients, Cys is given orally as Cys bitartrate (Cystagon®). […] The efficacy of different regimens of 50 mg/kg Cys s.c. (number of injections, interval between injections) on replication of P. chabaudi in vivo was evaluated. P. chabaudi-infected mice were treated daily, starting at day −1 and continuing to day 10, with either 1×150 mg/kg, 3×50 mg/kg given at 2 hr intervals, 4×50 mg/kg given at 2 hr intervals or 3×50 mg/kg given at 1 hr intervals of Cys, and blood parasitemia was monitored at days 5, 6 and 7 (FIG. 2B).

Structure (SMILES): NCCS [Cysteamine]
- AUC (ip, 120 mg/kg): 405 µM·h
- Cmax (ip, 120 mg/kg): 665 µM
- Tmax (ip, 120 mg/kg): < 5 min
- AUC (sc, 50 mg/kg): 47.4 µM·h
- Cmax (sc, 50 mg/kg): ~80 µM
- AUC (sc, 120 mg/kg): 255 µM·h
- Cmax (sc, 120 mg/kg): 250 µM
- Tmax (sc, 120 mg/kg): 30 min
